The test has as its target Cp-NanI (Clostridium perfringens, UniProt A0A0H2YQR1). As to the kind of experiment: biochemical.

“Also recorded” adds a separate entry of the source. Where two headings read alike, the source gives them in different places.

Consider five compounds from article PMC4014123 (Acta Crystallographica Section D: Biological Crystallography, 2014).

Sequence of Cp-NanI (A0A0H2YQR1 243-694 limits assumed): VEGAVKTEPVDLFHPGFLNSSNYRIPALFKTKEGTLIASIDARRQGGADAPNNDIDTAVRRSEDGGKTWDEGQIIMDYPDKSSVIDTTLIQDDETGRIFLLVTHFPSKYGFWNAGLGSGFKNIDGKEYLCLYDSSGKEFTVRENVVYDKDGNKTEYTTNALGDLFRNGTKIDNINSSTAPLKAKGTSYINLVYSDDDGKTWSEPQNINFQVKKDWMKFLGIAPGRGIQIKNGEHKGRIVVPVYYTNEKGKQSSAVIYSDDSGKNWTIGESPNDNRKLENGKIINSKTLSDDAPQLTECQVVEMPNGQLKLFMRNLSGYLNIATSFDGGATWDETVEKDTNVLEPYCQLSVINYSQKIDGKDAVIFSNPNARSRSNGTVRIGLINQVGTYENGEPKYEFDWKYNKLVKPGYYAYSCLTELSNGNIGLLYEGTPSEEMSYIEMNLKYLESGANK

In the case of “6-[(2E)-3,7-dimethylocta-2,6-dienyl]-5,7-dihydroxy-2-(3-hydroxy-4-methoxyphenyl)-2,3-dihydrochromen-4-one [3′-O-Methyldiplacone]”, the IC50 (commonly the concentration at which inhibition is half-maximal) (pH 5, read-out: IC50) came out at 14.3 µM.

`COc1ccc(C2CC(=O)c3c(cc(O)c(C/C=C(\C)CCC=C(C)C)c3O)O2)cc1O` (stereo not shown) [4′-O-Methyldiplacone, 6-[(2E)-3,7-dimethylocta-2,6-dienyl]-5,7-dihydroxy-2-(3-hydroxy-4-methoxyphenyl)-2,3-dihydrochromen-4-one] came in with a half-inhibitory concentration (IC50) of 12.9 µM.

With `CC(C)=CCC/C(C)=C/Cc1c(O)cc2c(c1O)C(=O)CC(c1ccc(O)c(O)c1)O2` (stereo not shown) [Diplacone, 2-(3,4-dihydroxyphenyl)-6-[(2E)-3,7-dimethylocta-2,6-dienyl]-5,7-dihydroxy-2,3-dihydrochromen-4-one], inhibition was half-maximal at 0.11 µM (IC50), the “inhibition kinetics / mechanism” value was “competitive kinetics; also recorded: time-dependent inhibitor”, the “k 5” value came to 0.201 ± 0.003 min⁻¹ and the “k 6” value came to 0.0017 ± 0.004 min⁻¹. Moreover, the Ki (K i) was 0.04 µM. The compound further gave a Ki (K i ^app) of 0.065 ± 0.008 µM.

In turn, `O=C1C[C@@H](c2ccc(O)c(O)c2)Oc2cc(O)cc(O)c21` [Eriodictyol, (2S)-2-(3,4-dihydroxyphenyl)-5,7-dihydroxy-4-chroman-one, reference compound] showed an IC50 of 16.4 µM.

For `CC(C)=CCC/C(C)=C/Cc1c(O)cc2c(c1O)C(=O)C[C@@H](c1ccc(O)cc1)O2` [Mimulone, (2S)-6-[(2E)-3,7-dimethylocta-2,6-dienyl]-5,7-dihydroxy-2-(4-hydroxyphenyl)-2,3-dihydrochromen-4-one], the IC50 worked out at 6.1 µM.
